For 2 compounds, IC50 results are on record in BindingDB's records for patent US11897898 (Biogen Ma, 2024).

This test concerns the target T1, Mitogen-activated protein kinase kinase kinase 5 (Homo sapiens, UniProt Q99683).
T1 sequence (Q99683 whole entry): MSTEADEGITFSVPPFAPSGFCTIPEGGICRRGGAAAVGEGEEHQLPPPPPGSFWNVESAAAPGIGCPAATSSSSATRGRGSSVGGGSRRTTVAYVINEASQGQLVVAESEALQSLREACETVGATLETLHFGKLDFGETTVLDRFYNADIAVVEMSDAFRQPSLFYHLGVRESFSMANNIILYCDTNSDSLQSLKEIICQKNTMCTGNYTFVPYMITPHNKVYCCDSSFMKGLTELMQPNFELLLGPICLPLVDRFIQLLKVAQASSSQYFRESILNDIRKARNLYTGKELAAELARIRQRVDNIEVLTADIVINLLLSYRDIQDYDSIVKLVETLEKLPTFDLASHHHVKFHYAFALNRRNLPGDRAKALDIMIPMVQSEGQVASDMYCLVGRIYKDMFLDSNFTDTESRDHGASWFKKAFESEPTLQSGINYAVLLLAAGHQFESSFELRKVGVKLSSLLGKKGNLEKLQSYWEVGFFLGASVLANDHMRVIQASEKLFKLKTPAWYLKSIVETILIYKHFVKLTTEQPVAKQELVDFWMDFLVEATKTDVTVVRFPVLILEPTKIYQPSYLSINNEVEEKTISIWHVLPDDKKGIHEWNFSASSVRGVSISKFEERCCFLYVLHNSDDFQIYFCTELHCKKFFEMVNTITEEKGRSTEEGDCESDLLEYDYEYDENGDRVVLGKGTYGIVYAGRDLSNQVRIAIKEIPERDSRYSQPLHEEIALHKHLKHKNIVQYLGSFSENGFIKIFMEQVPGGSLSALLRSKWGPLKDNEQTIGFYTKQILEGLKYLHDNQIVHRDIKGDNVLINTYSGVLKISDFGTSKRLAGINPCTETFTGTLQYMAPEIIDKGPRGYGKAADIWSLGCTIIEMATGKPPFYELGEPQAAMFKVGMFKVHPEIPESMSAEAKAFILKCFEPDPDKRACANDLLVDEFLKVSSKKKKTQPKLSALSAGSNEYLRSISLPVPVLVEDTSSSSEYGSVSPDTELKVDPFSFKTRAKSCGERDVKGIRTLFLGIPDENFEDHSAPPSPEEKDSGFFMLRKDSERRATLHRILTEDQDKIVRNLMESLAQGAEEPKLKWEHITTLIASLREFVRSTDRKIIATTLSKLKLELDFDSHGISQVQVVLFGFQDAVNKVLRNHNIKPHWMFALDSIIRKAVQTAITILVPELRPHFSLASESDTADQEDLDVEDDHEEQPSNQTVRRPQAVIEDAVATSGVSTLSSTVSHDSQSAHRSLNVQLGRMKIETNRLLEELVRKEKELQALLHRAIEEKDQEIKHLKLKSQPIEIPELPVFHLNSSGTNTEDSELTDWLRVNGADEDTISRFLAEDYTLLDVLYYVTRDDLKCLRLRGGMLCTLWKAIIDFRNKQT
In words: ASK1 Enzyme Assay. Here is the method:
The protein kinase inhibitory activity of the compounds described herein were tested using the ASK1/MAP3K5 assay by Reaction Biology Corp. (Malvern, Pa.). The assay procedure follows (and is also available on the Reaction Biology Corp. website).Base Reaction Buffer: 20 mM Hepes (pH 7.5), 10 mM MgCl2, 1 mM EGTA,0.02% Brij35, 0.02 mg/mL BSA, 0.1 mM Na3VO4, 2 mM DTT, 1% DMSO;Substrate: 20 μM of myelin basic protein (MBP) and 10 μM ATP;Protein kinase: ASK1/MAP3K5.Reaction Procedure:1. Prepare indicated substrate in freshly prepared Base Reaction Buffer.2. Deliver any required cofactors to the substrate solution.3. Deliver indicated kinase into the substrate solution and gently mix.4. Deliver compounds in DMSO into the kinase reaction mixture by Acoustic; technology (Echo550; nanoliter range), incubate for 20 minutes at room temperature.5. Deliver 33P-ATP (specific activity 10 μCi/μL) into the reaction mixture to initiate the reaction.6. Incubate kinase reaction for 2 hours at room temperature.7. Reactions are spotted onto P81 ion exchange paper.8. Detect kinase activity by filter-binding method.

SMILES strings stand for the structures.

By IC50 is commonly meant the midpoint of a concentration-inhibition curve. A low value points to greater potency in that assay.

In the case of `C[C@@H]1CCCOc2ncc(-c3ccncc3)cc2C(=O)Nc2cccc(n2)-c2nncn21` [US11897898, Example 18], the IC50 entry is “in the range around 550 nM”. On to `C[C@@H]1CCCOc2ncc(N3CCOCC3)cc2C(=O)Nc2cccc(n2)-c2nncn21` [US11897898, Example 6], for which the IC50 result was “in the range around 550 nM”.
